Patent publication US20030114375A1, “Method for treating cystic fibrosis” (The Government of the USA, Dept of Health and Human …, priority 1994, published 2003)
Several values for one entry are separate records, joined by “and”; a condition that tells them apart may be missing. Identical values can stand only once. Like-named read-outs stand apart in the source and are kept apart here.

What was measured:
[1] = molecular target: T1, CFTR polypeptide Iα [SEQ ID NO:1] (Homo sapiens, UniProt P13569); experiment: 3H-CPX binding to Iα polypeptide (dot blot filter binding, displacement)
T1 construct: made in house; host or cells: chemical solid-phase synthesis (Yale University)
T1 sequence (P13569 with tags, fused parts or gaps): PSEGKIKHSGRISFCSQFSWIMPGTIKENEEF
Description: CPX was used as a representative compound known to activate chloride ion efflux from ΔF508 mutant cells. Stock solutions of CPX were prepared in DMSO in the millimolar concentration range. […] For displacement studies, unlabeled CPX, or other xanthine antagonists and nucleotides, were added to the incubation mixture before the radioactive probe. The mixture was then filtered through a nitrocellulose (NC) membrane (Schleicher & Schuell) by using a standard dot blot apparatus. […] The dot blots were then washed five times with 200 μl TRIS buffer-NaCl solutions (50 mM TRIS pH=7.0, 150 mM NaCl), radioactive spots were cut out, and the total was radioactivity determined by liquid scintillation counting.

A2a-adenosine receptor = molecular target: T2, A2a-adenosine receptor (Rattus norvegicus, UniProt P30543); experiment: Inhibition of [3H]CGS 21680 binding to A2a receptors; conditions: rat striatal membranes, 5 nM [3H]CGS 21680; read-out: Ki, μM(A2)
T2 construct: Rat cerebral cortical membranes and striatal membranes were prepared; from tissue; host or cells: rat striatal membranes
T2 sequence (P30543 whole entry): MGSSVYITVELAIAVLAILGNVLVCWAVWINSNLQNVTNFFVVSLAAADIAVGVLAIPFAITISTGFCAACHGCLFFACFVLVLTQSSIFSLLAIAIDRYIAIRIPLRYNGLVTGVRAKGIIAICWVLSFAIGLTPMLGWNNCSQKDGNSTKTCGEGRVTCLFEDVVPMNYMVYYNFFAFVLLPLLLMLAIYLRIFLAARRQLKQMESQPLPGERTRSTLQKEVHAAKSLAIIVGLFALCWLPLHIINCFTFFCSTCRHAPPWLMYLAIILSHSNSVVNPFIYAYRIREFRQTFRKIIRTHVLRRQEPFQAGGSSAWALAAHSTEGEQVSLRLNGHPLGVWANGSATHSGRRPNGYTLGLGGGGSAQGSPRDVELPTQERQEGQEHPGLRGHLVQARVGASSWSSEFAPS
Description: (§1) Solid samples of the adenosine derivatives were dissolved in dimethyl sulfoxide (DMSO) and stored in the art at. −20° C. The stock solutions were diluted with DMSO to a concentration of ≦0.1 mM prior to addition to the aqueous medium. The final concentration of DMSO in the assay medium was generally 2%.
Membranes (^˜80 μg protein per tube) were incubated for one hour at 25° C. in a total volume of 0.5 ml of a buffer solution consisting of […] tris hydrochloride and 10 mM MgCl2 at pH 7.4. Test drugs were dissolved in DMSO and added in 10 μl aliquots, resulting in a final DMSO concentration of 2%. Non-specific binding was defined using 20 μM 2-chloroadenosine. Filtration was carried out using a Brandel Cell Harvester, as above, using the tris.HCl/MgCl2 buffer recited hereinabove as the washing buffer.
(§2) At least six different concentrations spanning three orders of magnitude, adjusted appropriately for the IC50 of each compound, were used.

Iα polypeptide = molecular target: T3, Iα polypeptide (Homo sapiens, UniProt P13569); experiment: Phosphatidylserine liposome aggregation driven by Iα polypeptide; format: biochemical; conditions: 0.5 μg/ml (0.18 μM) Iα; for Effect on PS liposome aggregation driven by Iα: 2-thio-CPX up to 1 μM, IBMX up to 15 μM
T3 construct: made in house; host or cells: chemical solid-phase synthesis (Yale University)
T3 sequence (P13569 with tags, fused parts or gaps): as the sequence (P13569 with tags, fused parts or gaps) above
Description: Liposome aggregation assay: Phosphatidylserine (“PS”, obtained from Avanti) was dissolved in chloroform, and small unilamellar liposomes were prepared by the extrusion process known in the art. A Lipex machine was used to extrude the PS in a buffer consisting of 10 mM Na-HEPES, pH 7.2 and 1 mM EDTA. The liposomes were diluted to a final optical density at 540 nm of 0.01 and incubated with different concentrations of the different polypeptides and/or chloride ion efflux-activating compounds.

CFPAC cells [2] = conditions: read from the graphs
CFPAC cells [3] = experiment: [36Cl]- efflux from CFPAC cells
CFPAC cells [4] = conditions: U.S. Pat. No. 5,366,977 / Eidelman et al.; cited from earlier work
A1-adenosine receptor = molecular target: T4, A1-adenosine receptor (Rattus norvegicus, UniProt P25099); experiment: Inhibition of [3H]N6-phenylisopropyladenosine binding to A1 receptors; conditions: for Ki: rat cerebral cortex membranes, 1 nM [3H]PIA, read-out: Ki, μM(A1)
T4 construct: Rat cerebral cortical membranes and striatal membranes were prepared; from tissue; host or cells: rat cerebral cortex membranes
T4 sequence (P25099 1-326): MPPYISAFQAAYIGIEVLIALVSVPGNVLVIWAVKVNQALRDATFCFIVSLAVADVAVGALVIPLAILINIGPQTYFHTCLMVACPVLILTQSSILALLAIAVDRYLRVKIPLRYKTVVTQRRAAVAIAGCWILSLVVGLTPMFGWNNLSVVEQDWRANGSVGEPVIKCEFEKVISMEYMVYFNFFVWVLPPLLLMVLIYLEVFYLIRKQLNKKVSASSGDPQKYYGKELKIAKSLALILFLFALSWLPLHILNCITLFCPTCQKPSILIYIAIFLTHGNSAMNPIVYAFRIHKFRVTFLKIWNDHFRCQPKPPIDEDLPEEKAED
Description: as §1
Inhibition of binding of 1 nM [^3H]N^6-phenylisopropyladenosine (Dupont NEN, Boston, Mass.) to A1 receptors in rat cerebral cortex membranes was measured as described in Schwabe et al., Naunyn-Schmiedeberg's Arch. […] Membranes (^˜100 μg protein per tube) were incubated for 1.5 hours at 37° C. in a total volume of 0.5 ml of 50 mM tris hydrochloride at pH 7.4. Test drugs were dissolved in DMSO and added in 10 μl aliquots, resulting in a final DMSO concentration of 2%. Bound and free radioligand were separated by addition of 3 ml of a buffer containing 50 mM tris hydrochloride, at pH 7.4 at 5° C., followed by vacuum filtration using a Brandel Cell Harvester (Brandel, Gaithersburg, Md.) and a Whatman GF/B glass fiber filter with additional washes totaling 9 ml of buffer. Non-specific binding was determined with 10 μM 2-chloroadenosine.
as §2

Compound | Displacement of 3H-CPX binding to Iα [1] | Ki (A2a-adenosine receptor) [µM] | Effect on PS liposome aggregation driven by Iα (Iα polypeptide) | Efflux rate as compared to control (FIGS. 9-12) (CFPAC cells [2]) [%] | Conc. max. (nM): concentration at maximum impact upon chloride efflux (CFPAC cells [3]) | thresh (nM): minimum concentration required to detect an effect upon chloride efflux (CFPAC cells [3]) [nM] | Activation of chloride efflux from CF cells (words, prior disclosure) (CFPAC cells [4]) | Affinity for A1 receptor (A1-adenosine receptor) | Kd ([1]; Scatchard plot, n=4, 100 nM Iα) [nM] | Efflux rate as compared to control (FIGS. 9-12) (CFPAC cells [3]; read from the graphs) [%] | Concentration at maximum rate and extent of Iα-driven liposome aggregation (Iα polypeptide) [nM] | Ki (A1-adenosine receptor) [µM] | % control: chloride efflux at minimum detection relative to control (CFPAC cells [3]; at threshold concentration)
3-isobutylmethyl xanthine [Compound 3] | not effected | 16 | entirely inactive |  |  |  |  |  |  |  |  |  | 
Cn1c(=O)c2[nH]cnc2n(C)c1=O [Compound 1, theophylline, reference compound] |  |  |  | 200 | 100 nM | 1 |  |  |  |  |  |  | 
CCCn1c(=O)c2[nH]c(C3CCCC3)nc2n(CCC)c1=O [Compound 5, 1,3-dipropyl-8-cyclopentylxanthine, reference compound] | Displacement of binding was effected |  |  |  | 30 nM | 1 | promotes chloride efflux | high affinity | 69 ± 27 | 200 | 100 |  | 
CCCn1c(=O)c2[nH]c(C3CCCC3)nc2n(CCC)c1=S [Compound 8, 2-thio-8-cylcopentyl-1,3-dipropylxanthine, reference compound] | not effected | 0.31 | entirely inactive |  | >>10^4 nM |  | ineffective |  |  |  |  | 0.00066 | 
CCCn1c(=O)c2[nH]c(C34CC5CC(CC3C5)C4)nc2n(CCC)c1=O [Compound 12, 1,3-dipropyl-8-noradamantylxanthine, reference compound] |  | 0.38 |  |  | 10 nM | 1 | ineffective |  |  |  |  | 0.0013 | 120% and 120 ± 5%
